Source: the kinase profiling compilation of Christmann-Franck et al. (2016)

Assays:
Test in all cases: KINOMEscan competition binding
Details in all cases: compound 10.0 µM
[1] = biological target: NLK (human) (UniProt Q9UBE8)
[2] = biological target: CSK (human) (UniProt P41240)
[3] = biological target: MAPK14 (human) (UniProt Q16539)
[4] = biological target: PLK3 (human) (UniProt Q9H4B4)
[5] = biological target: ULK3 (human) (UniProt Q6PHR2)
[6] = biological target: PKN2 (human) (UniProt Q16513)
[7] = biological target: FGFR3 (human) (UniProt P22607)
[8] = biological target: PTK2 (human) (UniProt Q05397)
[9] = biological target: MAP4K2 (human) (UniProt Q12851)
[10] = biological target: TLK2 (human) (UniProt Q86UE8)
TLK2 (human), sequence (Q86UE8 whole entry, looked up): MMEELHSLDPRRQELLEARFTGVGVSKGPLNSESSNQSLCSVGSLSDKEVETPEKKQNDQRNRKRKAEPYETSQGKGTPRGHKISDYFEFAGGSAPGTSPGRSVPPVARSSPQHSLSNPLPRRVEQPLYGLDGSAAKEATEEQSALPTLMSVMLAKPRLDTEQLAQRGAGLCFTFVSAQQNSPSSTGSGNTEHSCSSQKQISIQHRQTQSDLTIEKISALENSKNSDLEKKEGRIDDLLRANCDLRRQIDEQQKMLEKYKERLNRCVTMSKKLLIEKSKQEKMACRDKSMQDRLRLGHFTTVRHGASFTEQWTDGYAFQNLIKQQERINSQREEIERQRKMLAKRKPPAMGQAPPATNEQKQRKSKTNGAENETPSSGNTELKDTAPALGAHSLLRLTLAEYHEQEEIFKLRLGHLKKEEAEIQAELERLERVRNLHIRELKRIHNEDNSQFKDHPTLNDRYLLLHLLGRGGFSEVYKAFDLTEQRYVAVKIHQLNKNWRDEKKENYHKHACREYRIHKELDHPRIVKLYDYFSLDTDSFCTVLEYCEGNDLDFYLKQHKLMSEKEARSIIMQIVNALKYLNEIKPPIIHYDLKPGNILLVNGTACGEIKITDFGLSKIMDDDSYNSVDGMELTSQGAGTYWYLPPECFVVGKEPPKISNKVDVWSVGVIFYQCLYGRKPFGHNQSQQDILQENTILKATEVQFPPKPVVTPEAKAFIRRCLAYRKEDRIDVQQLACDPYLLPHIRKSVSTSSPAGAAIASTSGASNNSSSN

[11] = biological target: MAPKAPK2 (human) (UniProt P49137)
[12] = biological target: STK32B (human) (UniProt Q9NY57)
[13] = biological target: PDPK1 (human) (UniProt O15530)
[14] = biological target: CAMKK1 (human) (UniProt Q8N5S9)
[15] = biological target: PRKD2 (human) (UniProt Q9BZL6)
[16] = biological target: CLK2 (human) (UniProt P49760)
CLK2 (human), sequence (P49760 whole entry, looked up): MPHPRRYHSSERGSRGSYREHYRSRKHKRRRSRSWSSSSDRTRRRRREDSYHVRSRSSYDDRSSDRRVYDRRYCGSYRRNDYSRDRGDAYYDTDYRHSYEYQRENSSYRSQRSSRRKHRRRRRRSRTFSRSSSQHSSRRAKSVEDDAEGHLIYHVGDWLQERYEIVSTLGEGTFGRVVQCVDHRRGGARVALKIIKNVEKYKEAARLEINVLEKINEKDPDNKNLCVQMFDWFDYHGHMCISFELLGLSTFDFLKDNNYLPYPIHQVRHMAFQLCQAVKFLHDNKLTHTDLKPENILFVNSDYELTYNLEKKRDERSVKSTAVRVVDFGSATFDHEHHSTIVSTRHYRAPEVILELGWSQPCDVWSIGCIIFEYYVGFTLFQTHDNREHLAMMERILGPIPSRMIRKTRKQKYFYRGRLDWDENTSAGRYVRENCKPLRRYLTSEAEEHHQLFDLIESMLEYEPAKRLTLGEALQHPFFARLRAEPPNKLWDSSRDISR

[17] = biological target: CSNK1D (human) (UniProt P48730)
[18] = biological target: CDC42BPG (human) (UniProt Q6DT37)
[19] = biological target: PIM2 (human) (UniProt Q9P1W9)
[20] = biological target: EPHA2 (human) (UniProt P29317)
[21] = biological target: MAP4K5 (human) (UniProt Q9Y4K4)
[22] = biological target: ERBB4 (human) (UniProt Q15303)
[23] = biological target: PAK4 (human) (UniProt O96013)
PAK4 (human), sequence (O96013 whole entry, looked up): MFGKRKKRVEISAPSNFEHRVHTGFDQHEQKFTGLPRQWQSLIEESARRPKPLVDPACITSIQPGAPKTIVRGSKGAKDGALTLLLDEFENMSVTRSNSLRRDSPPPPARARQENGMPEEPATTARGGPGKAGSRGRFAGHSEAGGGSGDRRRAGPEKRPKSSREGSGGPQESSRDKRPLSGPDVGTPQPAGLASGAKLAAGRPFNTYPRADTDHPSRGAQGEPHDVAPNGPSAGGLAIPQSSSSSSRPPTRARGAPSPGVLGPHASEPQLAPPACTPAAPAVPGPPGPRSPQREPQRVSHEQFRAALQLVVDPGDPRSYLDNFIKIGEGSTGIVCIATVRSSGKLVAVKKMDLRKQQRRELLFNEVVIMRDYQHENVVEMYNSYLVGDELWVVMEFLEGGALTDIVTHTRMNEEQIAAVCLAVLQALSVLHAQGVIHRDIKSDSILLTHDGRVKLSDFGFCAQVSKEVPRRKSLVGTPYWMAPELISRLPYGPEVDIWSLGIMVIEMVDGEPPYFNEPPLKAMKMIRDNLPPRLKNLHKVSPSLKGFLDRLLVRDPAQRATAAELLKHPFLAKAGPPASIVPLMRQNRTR

[24] = biological target: RPS6KA4 KD1 (human) (UniProt O75676)
[25] = biological target: PKN1 (human) (UniProt Q16512)
[26] = biological target: RPS6KA2 KD1 (human) (UniProt Q15349)
RPS6KA2 KD1 (human), sequence (Q15349 whole entry, looked up): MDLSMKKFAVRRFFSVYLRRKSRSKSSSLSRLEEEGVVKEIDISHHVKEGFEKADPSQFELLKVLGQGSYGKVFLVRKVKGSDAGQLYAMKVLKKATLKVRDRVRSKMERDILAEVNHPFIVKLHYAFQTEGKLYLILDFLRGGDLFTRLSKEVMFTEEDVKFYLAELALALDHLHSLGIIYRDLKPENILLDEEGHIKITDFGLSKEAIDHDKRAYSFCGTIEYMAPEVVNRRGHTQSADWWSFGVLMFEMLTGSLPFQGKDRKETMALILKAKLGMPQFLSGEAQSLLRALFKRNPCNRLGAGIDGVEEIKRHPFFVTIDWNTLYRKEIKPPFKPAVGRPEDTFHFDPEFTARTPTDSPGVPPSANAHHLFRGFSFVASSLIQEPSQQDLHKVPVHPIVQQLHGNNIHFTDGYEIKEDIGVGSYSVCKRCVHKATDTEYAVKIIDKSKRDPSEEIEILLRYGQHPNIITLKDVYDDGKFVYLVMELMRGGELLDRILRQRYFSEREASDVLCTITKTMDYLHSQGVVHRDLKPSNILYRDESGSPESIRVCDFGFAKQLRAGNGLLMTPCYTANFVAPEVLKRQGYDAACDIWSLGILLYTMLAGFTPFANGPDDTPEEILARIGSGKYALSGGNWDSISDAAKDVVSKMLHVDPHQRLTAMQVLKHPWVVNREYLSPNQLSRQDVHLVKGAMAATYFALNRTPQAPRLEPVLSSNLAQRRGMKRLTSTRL

[27] = biological target: MAP3K4 (human) (UniProt Q9Y6R4)
[28] = biological target: FGFR1 (human) (UniProt P11362)
[29] = biological target: PLK4 (human) (UniProt O00444)
[30] = biological target: ERBB2 (human) (UniProt P04626)
[31] = biological target: CDC42BPB (human) (UniProt Q9Y5S2)
[32] = biological target: PRKG1 (human) (UniProt Q13976)
[33] = biological target: TGFBR1 (human) (UniProt P36897)
TGFBR1 (human), sequence (P36897 whole entry, looked up): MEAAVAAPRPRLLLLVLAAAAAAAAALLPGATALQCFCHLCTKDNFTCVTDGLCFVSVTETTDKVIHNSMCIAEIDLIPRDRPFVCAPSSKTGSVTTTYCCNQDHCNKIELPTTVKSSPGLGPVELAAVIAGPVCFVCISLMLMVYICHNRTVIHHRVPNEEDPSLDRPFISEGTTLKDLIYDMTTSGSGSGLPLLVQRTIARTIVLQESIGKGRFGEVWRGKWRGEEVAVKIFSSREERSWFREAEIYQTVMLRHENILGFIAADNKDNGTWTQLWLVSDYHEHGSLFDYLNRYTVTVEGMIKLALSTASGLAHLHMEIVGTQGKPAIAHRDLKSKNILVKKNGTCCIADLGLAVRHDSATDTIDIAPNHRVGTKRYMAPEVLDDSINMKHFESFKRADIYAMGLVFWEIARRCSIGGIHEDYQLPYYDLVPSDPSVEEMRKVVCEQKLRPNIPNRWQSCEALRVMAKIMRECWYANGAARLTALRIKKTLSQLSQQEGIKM

[34] = biological target: RPS6KA2 KD2 (human) (UniProt Q15349)
RPS6KA2 KD2 (human), sequence (Q15349 whole entry, looked up): as the sequence (Q15349 whole entry, looked up) above

[35] = biological target: AAK1 (human) (UniProt Q2M2I8)
AAK1 (human), sequence (Q2M2I8 whole entry, looked up): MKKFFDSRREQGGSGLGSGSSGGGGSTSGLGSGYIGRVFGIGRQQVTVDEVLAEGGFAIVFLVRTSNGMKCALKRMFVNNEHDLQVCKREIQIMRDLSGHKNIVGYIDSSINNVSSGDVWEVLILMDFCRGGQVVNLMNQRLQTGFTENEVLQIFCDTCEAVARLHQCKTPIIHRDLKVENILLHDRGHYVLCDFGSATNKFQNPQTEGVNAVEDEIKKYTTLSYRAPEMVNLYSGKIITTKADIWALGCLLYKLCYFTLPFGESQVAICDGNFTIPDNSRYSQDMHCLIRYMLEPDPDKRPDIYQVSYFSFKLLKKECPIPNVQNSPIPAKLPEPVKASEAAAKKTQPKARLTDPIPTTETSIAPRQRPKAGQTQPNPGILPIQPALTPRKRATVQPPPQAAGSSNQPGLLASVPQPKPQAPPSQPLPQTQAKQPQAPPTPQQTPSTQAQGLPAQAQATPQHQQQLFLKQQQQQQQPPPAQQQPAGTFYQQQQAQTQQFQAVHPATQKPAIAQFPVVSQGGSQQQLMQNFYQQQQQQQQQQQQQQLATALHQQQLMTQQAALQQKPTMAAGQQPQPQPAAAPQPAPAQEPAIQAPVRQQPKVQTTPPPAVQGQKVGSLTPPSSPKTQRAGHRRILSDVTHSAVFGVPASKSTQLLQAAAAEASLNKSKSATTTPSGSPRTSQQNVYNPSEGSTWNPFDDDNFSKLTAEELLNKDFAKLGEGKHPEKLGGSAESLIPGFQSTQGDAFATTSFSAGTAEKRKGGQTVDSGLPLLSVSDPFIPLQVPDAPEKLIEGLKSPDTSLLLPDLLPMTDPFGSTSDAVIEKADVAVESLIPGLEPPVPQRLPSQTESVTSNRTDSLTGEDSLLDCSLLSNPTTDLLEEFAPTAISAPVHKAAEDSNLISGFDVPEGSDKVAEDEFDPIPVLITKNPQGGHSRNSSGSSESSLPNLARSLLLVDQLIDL

[36] = biological target: SRPK1 (human) (UniProt Q96SB4)
[37] = biological target: EPHA6 (human) (UniProt Q9UF33)
[38] = biological target: ACVR1 (human) (UniProt Q04771)
[39] = biological target: MAPK7 (human) (UniProt Q13164)
[40] = biological target: ACVR1B (human) (UniProt P36896)

MAPK14 (human), sequence (Q16539 whole entry, looked up): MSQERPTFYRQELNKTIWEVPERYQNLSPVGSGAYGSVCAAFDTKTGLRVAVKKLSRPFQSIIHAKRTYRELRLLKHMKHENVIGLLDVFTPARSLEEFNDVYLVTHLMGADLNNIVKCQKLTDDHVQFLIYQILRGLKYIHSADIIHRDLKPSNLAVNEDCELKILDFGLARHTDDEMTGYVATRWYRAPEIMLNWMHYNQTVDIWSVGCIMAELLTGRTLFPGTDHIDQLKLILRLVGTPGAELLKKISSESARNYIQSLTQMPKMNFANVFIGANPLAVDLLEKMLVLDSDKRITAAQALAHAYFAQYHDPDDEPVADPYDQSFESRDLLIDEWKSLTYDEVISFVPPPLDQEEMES
NLK (human), sequence (Q9UBE8 whole entry, looked up): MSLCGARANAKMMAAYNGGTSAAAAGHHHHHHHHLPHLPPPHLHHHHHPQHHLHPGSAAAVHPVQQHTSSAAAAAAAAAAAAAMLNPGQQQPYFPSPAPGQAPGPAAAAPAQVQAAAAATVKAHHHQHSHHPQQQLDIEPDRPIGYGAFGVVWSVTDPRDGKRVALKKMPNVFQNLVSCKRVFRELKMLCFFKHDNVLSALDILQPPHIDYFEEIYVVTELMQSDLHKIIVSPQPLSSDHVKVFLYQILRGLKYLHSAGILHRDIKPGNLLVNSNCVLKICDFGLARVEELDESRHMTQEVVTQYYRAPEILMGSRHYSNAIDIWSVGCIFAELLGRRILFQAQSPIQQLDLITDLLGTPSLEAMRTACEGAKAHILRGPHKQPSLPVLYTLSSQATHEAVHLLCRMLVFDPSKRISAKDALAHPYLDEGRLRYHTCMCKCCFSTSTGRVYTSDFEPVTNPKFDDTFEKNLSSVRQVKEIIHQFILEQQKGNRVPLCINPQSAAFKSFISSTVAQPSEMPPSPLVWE

With `C[C@@H](Oc1cc(-n2cnc3ccc(CN4CCN(C)CC4)cc32)sc1C(N)=O)c1ccccc1C(F)(F)F` the kinase still bound, per cent of control [1] was 100%, the kinase still bound, per cent of control [2] was 100% and the kinase still bound, per cent of control [3] was 100%. The kinase still bound, per cent of control [4] was 3.6%, the kinase still bound, per cent of control [5] was 100% and the kinase still bound, per cent of control [6] was 6%. It also gave a kinase still bound, per cent of control [7] of 80%, a kinase still bound, per cent of control [8] of 99% and a kinase still bound, per cent of control [9] of 24%. It also gave a kinase still bound, per cent of control [10] of 94%, a kinase still bound, per cent of control [11] of 100% and a kinase still bound, per cent of control [12] of 100%. For the same molecule, the kinase still bound, per cent of control [13] was 100%, the kinase still bound, per cent of control [14] was 99% and the kinase still bound, per cent of control [15] was 27%. For the same molecule, the kinase still bound, per cent of control [16] was 69%, the kinase still bound, per cent of control [17] was 100% and the kinase still bound, per cent of control [18] was 100%. It also gave a kinase still bound, per cent of control [19] of 77%, a kinase still bound, per cent of control [20] of 92% and a kinase still bound, per cent of control [21] of 68%. It also gave a kinase still bound, per cent of control [22] of 88%, a kinase still bound, per cent of control [23] of 37% and a kinase still bound, per cent of control [24] of 68%. The kinase still bound, per cent of control [25] was 46%, the kinase still bound, per cent of control [26] was 4% and the kinase still bound, per cent of control [27] was 100%. For the same molecule, the kinase still bound, per cent of control [28] was 37%, the kinase still bound, per cent of control [29] was 97% and the kinase still bound, per cent of control [30] was 68%. It also gave a kinase still bound, per cent of control [31] of 100%, a kinase still bound, per cent of control [32] of 100% and a kinase still bound, per cent of control [33] of 99%. It also gave a kinase still bound, per cent of control [34] of 74%, a kinase still bound, per cent of control [35] of 40% and a kinase still bound, per cent of control [36] of 46%. For the same molecule, the kinase still bound, per cent of control [37] was 92%, the kinase still bound, per cent of control [38] was 100% and the kinase still bound, per cent of control [39] was 91%. The kinase still bound, per cent of control [40] was 97%.

`CN(C)C/C=C/C(=O)Nc1cccc(Nc2ncc3c(n2)N(C)c2ccccc2C(=O)N3C)c1` showed a kinase still bound, per cent of control [1] of 36%, a kinase still bound, per cent of control [2] of 82% and a kinase still bound, per cent of control [3] of 100%. The kinase still bound, per cent of control [4] was 72%, the kinase still bound, per cent of control [5] was 45% and the kinase still bound, per cent of control [6] was 64%. It also gave a kinase still bound, per cent of control [7] of 12%, a kinase still bound, per cent of control [8] of 14% and a kinase still bound, per cent of control [9] of 13%. For the same molecule, the kinase still bound, per cent of control [10] was 88%, the kinase still bound, per cent of control [11] was 100% and the kinase still bound, per cent of control [12] was 100%. The kinase still bound, per cent of control [13] was 86%, the kinase still bound, per cent of control [14] was 39% and the kinase still bound, per cent of control [15] was 36%. The kinase still bound, per cent of control [16] was 41%, the kinase still bound, per cent of control [17] was 52% and the kinase still bound, per cent of control [18] was 100%. The kinase still bound, per cent of control [19] was 100%, the kinase still bound, per cent of control [20] was 82% and the kinase still bound, per cent of control [21] was 75%. The kinase still bound, per cent of control [22] was 100%, the kinase still bound, per cent of control [23] was 61% and the kinase still bound, per cent of control [24] was 59%. The kinase still bound, per cent of control [25] was 69%, the kinase still bound, per cent of control [26] was 50% and the kinase still bound, per cent of control [27] was 73%. It also gave a kinase still bound, per cent of control [28] of 3.5%, a kinase still bound, per cent of control [29] of 0% and a kinase still bound, per cent of control [30] of 65%. It also gave a kinase still bound, per cent of control [31] of 100%, a kinase still bound, per cent of control [32] of 100% and a kinase still bound, per cent of control [33] of 25%. The kinase still bound, per cent of control [34] was 21%, the kinase still bound, per cent of control [35] was 20% and the kinase still bound, per cent of control [36] was 23%. For the same molecule, the kinase still bound, per cent of control [37] was 91%, the kinase still bound, per cent of control [38] was 45% and the kinase still bound, per cent of control [39] was 0.1%. The kinase still bound, per cent of control [40] was 53%.

`N#Cc1c(NC(=O)c2cccc3ccccc23)sc2c1CCCC2` was tested, and the kinase still bound, per cent of control [1] was 65%, the kinase still bound, per cent of control [2] was 95% and the kinase still bound, per cent of control [3] was 100%. For the same molecule, the kinase still bound, per cent of control [4] was 100%, the kinase still bound, per cent of control [5] was 94% and the kinase still bound, per cent of control [6] was 81%. The kinase still bound, per cent of control [7] was 100%, the kinase still bound, per cent of control [8] was 91% and the kinase still bound, per cent of control [9] was 100%. It also gave a kinase still bound, per cent of control [10] of 100%, a kinase still bound, per cent of control [11] of 93% and a kinase still bound, per cent of control [12] of 83%. For the same molecule, the kinase still bound, per cent of control [13] was 81%, the kinase still bound, per cent of control [14] was 91% and the kinase still bound, per cent of control [15] was 88%. It also gave a kinase still bound, per cent of control [16] of 87%, a kinase still bound, per cent of control [17] of 100% and a kinase still bound, per cent of control [18] of 81%. For the same molecule, the kinase still bound, per cent of control [19] was 69%, the kinase still bound, per cent of control [20] was 100% and the kinase still bound, per cent of control [21] was 65%. The kinase still bound, per cent of control [22] was 100%, the kinase still bound, per cent of control [23] was 100% and the kinase still bound, per cent of control [24] was 91%. The kinase still bound, per cent of control [25] was 94%, the kinase still bound, per cent of control [26] was 93% and the kinase still bound, per cent of control [27] was 86%. For the same molecule, the kinase still bound, per cent of control [28] was 99%, the kinase still bound, per cent of control [29] was 82% and the kinase still bound, per cent of control [30] was 87%. It also gave a kinase still bound, per cent of control [31] of 80%, a kinase still bound, per cent of control [32] of 88% and a kinase still bound, per cent of control [33] of 100%. For the same molecule, the kinase still bound, per cent of control [34] was 79%, the kinase still bound, per cent of control [35] was 91% and the kinase still bound, per cent of control [36] was 100%. For the same molecule, the kinase still bound, per cent of control [37] was 94%, the kinase still bound, per cent of control [38] was 64% and the kinase still bound, per cent of control [39] was 96%. The kinase still bound, per cent of control [40] was 100%.
